Measured values: US20260166021A1, “POLYMORPHIC FORMS OF A SOLUBLE EPOXIDE HYDROLASE INHIBITOR AND FORMULATIONS THEREOF” (EicOsis, LLC, priority 2022, published 2026)
Converted amounts (≈) assume the structure as drawn.

Experiments:
Type in all cases: physicochemical
[1] = PEG-stability analyses: Form C/Form D mixture slurried in PEG300 with water
Description: Of particular interest was whether Form D would convert to a hydrate (e.g., Form C) in the presence of water. To investigate the critical water concentration for phase interconversion between Pattern C and D, a series experiments were designed (as summarized in TABLE 16). A 1:1 mixture of Forms C and D was prepared and slurried in PEG 300 with different levels of water concentrations. Phase transformations were monitored with XRD, and are summarized in FIG. 85, which (from top to bottom) provides XRD of Form C, Form D, the mixture following incubation in PEG300 containing 75% water, the mixture following incubation in PEG300 containing 50% water, the mixture following incubation in PEG300 containing 25% water, the mixture following incubation in PEG300 containing 10% water, and the mixture following incubation in PEG300 containing 5% water. […] Form D is the stable form in PEG300 with less than 50% water.

[2] = Competitive slurry experiments (solvent-mediated polymorph transformation, XRD); details: room temperature, water, MTBE or n-heptane, 1 and 7 days, listed as Pattern C
Description: Polymorph stability and interconversions were analyzed with competitive slurry experiments. The competitive slurry (solvent-mediated transformation) experiments were performed on Forms A, B, D, E, F, G, and I generated through scaled-up crystallization (summarized in TABLE 11). […] The suspensions were aliquoted at one day and seven days and filtered to isolate the solids. Remaining solid was analyzed by XRD without drying.
In FIG. 66, the second spectrum from the top corresponds to Form E. These XRD data confirmed that Patterns C, K, and D were afforded in these solvents.
In order to further confirm the rank of stability order of the selected forms and extend the temperature range of stability relationship up to 70° C. covering potential API process conditions, binary form slurries were conducted with starting mixtures of (1) Forms A and D, and (2) Forms D and E. The resultant polymorphs were characterized with XRD after 1 and 7 days, the results of which analyses are shown in FIGURE S 67-68 and summarized in TABLE 13. Pattern D stood out from both binary mixture slurries of A & D and of D & E after seven-day stirring at the elevated temperature.
Additional single form slurry experiments were conducted on Forms A, D, and E in either water or heptane at room temperature. […] In agreement with prior competitive slurry experiments, Form D was stable at room temperature in n-heptane. Pattern E was obtained from slurries starting with Forms A and E in n-heptane. As expected, Form C was formed from the Pattern E slurry in water.

[3] = Thermal stress studies at 60° C. (XRD, HPLC); details: incubated at 60° C., in less than 1 day
Description: Briefly, 20 mg of solid Form A, B, C, D, E, F, G, and I were weighed into 7 mL glass vials. The vials were covered with tissue and stored in ovens set to 60° C. and ambient pressure. Following 1 and 7 days incubation, solid was collected for XRD analysis.
As shown in these figures, Forms B and C converted to Forms D and A, respectively, while the other forms remained unchanged.
The starting materials, intermediates (1 day of thermal stress), and products (7 days of thermal stress) were analyzed by H PLC. Representative chromatograms from the Form D thermal stress analyses are shown in FIGS. 81-83 (starting material, 1 day, and 7 day samples, respectively).

[4] = Solubility of Form C in binary solvent systems (TABLE 22)
[5] = Equilibrium-solubility screening in solvents and excipients
Description: For these analyses, Form D or Form C was mixed with 0.5 or 1.0 mL of solvents and equilibrated for approximately 24 hours. The mixture was filtered through 0.45 μm centrifuge filters.
As expected, the compound was not easily ionized at physiologically relevant pH. […] In addition, these excipients included surfactants, co-solvents, and lipids which are amenable for use in self-emulsifying drug delivery systems (SEDDS). The XRD pattern of the starting material was maintained for each sample after equilibrium.

[6] = Supersaturation monitoring in PEG 300; details: PEG 300 (0.5 mL)
[7] = Moisture-sorption analysis (DVS); details: dynamic vapor sorption
Description: Gravimetric moisture sorption experiment was performed on all materials by first holding the sample at 40% RH and 25° C. until an equilibrium weight was reached or for a maximum of 4 h. The sample was then subjected to an isothermal (25° C.) adsorption scan from 40% to 90% R H in steps of 10% RH. The sample was allowed to equilibrate to an asymptotic weight at each point for a maximum of 4 h. Following adsorption, a desorption scan from 90% to 0% RH (at 25° C.) was run in steps of −10% R H allowing a maximum of 4 h for equilibration to an asymptotic weight. An adsorption scan was then performed from 0% RH to 40% RH in steps of +10% R H. The sample was then dried for more than 2 h at 60° C. 0% R H and the resulting solid analyzed by XRD.
FIGS. 88-92 provide physical analyses of lot 1. […] FIG. 90 provides a modulated DSC thermogram of lot 1, and identifies a glass transition temperature midpoint of around 48.5° C. […] FIG. 92 provides dynamic vapor sorption plots of lot 1, indicating 2.49 weight percent water vapor adsorption at 90% relative humidity, 1.25 weight percent water vapor adsorption at 60% relative humidity, and close to complete water vapor desorption at 0% relative humidity.
FIG. 95 provides polarized-light microscope images of lot 2 at 200× magnification, with 50 and 100 μm scales shown. […] FIG. 96 provides dynamic vapor sorption plots of lot 2, indicating 3.99 weight percent water vapor adsorption at 60% relative humidity, 4.12 weight percent water vapor adsorption at 90% relative humidity, and close to complete water vapor desorption at 0% relative humidity.

[8] = Differential scanning calorimetry (DSC): heat of fusion, thermal events; details: DSC thermogram of lot
Description: Differential scanning calorimetry analyses were performed on each sample “as is.” Unless otherwise specified, samples were weighed in an aluminum pan, covered with a pierced lid, and then crimped and analyzed from 30-300° C. ramped at 10° C./min.
The DSC data were used to determine the heat of fusion for Forms A, B, D, and F, based on their heats of fusion as measured during conversion from Form C.

[9] = Particle size analysis (Malvern particle sizer, dry method; optical microscopy); details: for Size range / birefringence / crystal shape: polarized-light microscopic images
Description: Particle size was first analyzed with optical microscopy.
Particle size was also analyzed with a dry-method using a Malvern 300 particle sizer equipped with a standard energy venturi and utilizing 2.5 bar, 3.0 bar, and 3.5 bar air pressure. […] One possible explanation is that the insufficient energy was provided to break up particle agglomerations.
Based on these findings, particle size analysis was repeated at 2.5, 3.0, and 3.5 bar using a higher energy venturi to ensure the break-up of the potential agglomerates. The detailed particle sizing data using high-energy venturi are summarized in TABLE 26 and in FIGS. 114-119, with FIGS. 114-116 corresponding to 2.5, 3.0, and 3.5 bar analyses of unmilled Form D and FIGS. 117-119 corresponding to 2.5, 3.0, and 3.5 bar analyses of micronized Form D, respectively. While the data remained bimodal, indicating incomplete break-up of particle agglomerates, the D90 of micronized material measured below 6 μm, in closer agreement with the optical analyses.

[10] = Thermal gravimetric analysis (TGA); details: TGA thermogram of lot
Description: Thermal gravimetric analyses were performed on each sample “as is.” Unless otherwise noted, samples were weighed in an alumina crucible and analyzed from 30-350° C. at 10° C./min.
Form C weight loss at 39° C.-50° C. likely reflected methanol loss.

[11] = Bulk and tapped density (tap density tester); details: listed as micronixed form
Description: Before milling, Form D was screened through a 30-micron mesh sieve. Then, Form D micronized using a 2-inch jet mill 70 psig feed pressure, 40 psig grinding pressure, and a 4.3 g/min powder feed rate. The micronization process provided a 69% yield and 95.6% crystallinity relative to the unmilled material.

With `CC[C@H](C)C(=O)N1CCC(NC(=O)Nc2ccc(OC(F)(F)F)c(F)c2)CC1` [C (50%) + D (50%)] the “XRD Pattern at Equilibrium” value ([1]; H2O:PEG 300 = 50%:50%) was “C (major) + D (minor)”.
For `CC[C@H](C)C(=O)N1CCC(NC(=O)Nc2ccc(OC(F)(F)F)c(F)c2)CC1` [Form C, (S)-1-(3-fluoro-4-(trifluoromethoxy)phenyl)-3-(1-(2-methylbutanoyl)piperidin-4-yl)urea], the “polymorph stability in competitive slurry” value [2] was “unstable hydrate”, the “conversion to Form A” value [3] was 100% and the “stable form in PEG300 with 50% or higher water content” value ([1]; 1:1 mixture of Forms C and D slurried in PEG300, XRD) was “more stable”. The solubility ([4]; IPA/n-heptane, ratio of n-heptane to primary 21.3, organic solvent or mixture) was 5000 µg/mL, the solubility ([4]; ethanol/n-heptane, organic solvent or mixture, EtOH, ratio of n-heptane to primary 7.7 (1st test point)) was 38000 µg/mL and the solubility ([4]; ethanol/n-heptane, organic solvent or mixture, EtOH, ratio of n-heptane to primary 13.2 (2nd test point)) was 10000 µg/mL. The solubility ([4]; ethyl acetate/n-heptane, organic solvent or mixture, EtoAC, ratio of n-heptane to primary 1.4 (1st test point)) was 7000 µg/mL, the solubility ([4]; ethyl acetate/n-heptane, organic solvent or mixture, EtoAC, ratio of n-heptane to primary 2.0 (2nd test point)) was 4000 µg/mL and the solubility ([4]; ethyl acetate/n-heptane, organic solvent or mixture, EtoAC, ratio of n-heptane to primary 2.2 (3rd test point)) was 3000 µg/mL. The solubility ([4]; organic solvent or mixture, IPA, ratio of n-heptane to primary 13.3 (1st test point)) was 30000 µg/mL, the solubility ([4]; organic solvent or mixture, IPA, ratio of n-heptane to primary 13.9 (2nd test point)) was 10000 µg/mL and the solubility ([4]; organic solvent or mixture, MEK, ratio of n-heptane to primary 2.0 (1st test point)) was 11000 µg/mL. For the same molecule, the solubility ([4]; organic solvent or mixture, MEK, ratio of n-heptane to primary 3.0 (2nd test point)) was 5000 µg/mL, the solubility ([4]; organic solvent or mixture, MEK, ratio of n-heptane to primary 3.4 (3rd test point)) was 4000 µg/mL and the “XRD Pattern At Equilibrium” value ([5]; PEG 300, 50%) was “Form C”. For the same molecule, the solubility thermodynamic at 24 h ([5]; PEG 300, 50%, aqueous with cosolvent or surfactant or cyclodextrin, thermodynamic from solid) was 800 µg/mL (≈ 1970 µM), the “Equilibrium Solubility” value ([5]; PEG 300, 100%) was 16700 µg/mL and the “XRD Pattern At Equilibrium” value ([5]; PEG 300, 100%) was “Form D”. The “Equilibrium Solubility” value ([5]; PEG 400, 50%) was 400 µg/mL, the “XRD Pattern At Equilibrium” value ([5]; PEG 400, 50%) was “Form C” and the “Equilibrium Solubility” value ([5]; PEG 400, 100%) was 17900 µg/mL. The “XRD Pattern At Equilibrium” value ([5]; PEG 400, 100%) was “Form D”, the “Step → Observation” value ([6]; 100 mg/mL, 1. RT stirring for 1 hr, listed as Pattern C) was 1. RT stirring for 1 hr →suspension and the “Step → Observation” value ([6]; 100 mg/mL, 2. 40 C. heating for 0.5 hr, listed as Pattern C) was 2. 40 °C heating for 0.5 hr →clear solution. The “Step → Observation” value ([6]; 100 mg/mL, 3. RT storage for ~8 days, listed as Pattern C) was 3. RT storage for ~8 days →clear solution, the “Step → Observation” value ([6]; 100 mg/mL, 4. RT storage for ~9 days, listed as Pattern C) was 4. RT storage for ~9 days →precipitation and the “Step → Observation” value ([6]; 200 mg/mL, 1. RT stirring for 1 hr) was 1. RT stirring for 1 hr →suspension. The “Step → Observation” value ([6]; 200 mg/mL, 2. 40 C. heating for 48 hr, listed as Pattern C) was 2. 40 °C heating for 48 hr →suspension, the “Step → Observation” value ([6]; 200 mg/mL, 3. 55 C. heating for <16 hr) was 3. 55 C. heating for <16 hr →clear solution and the “Step → Observation” value ([6]; 200 mg/mL, 4. RT storage for <3.5 days) was 4. RT storage for <3.5 days →precipitation. The “Step → Observation” value ([6]; 200 mg/mL, 5. 55 C. reheating for overnight) was 5. 55 C. reheating for overnight →clear solution and the “Step → Observation” value ([6]; 200 mg/mL, 6. RT storage for overnight) was 6. RT storage for overnight →precipitation.
For `CC[C@H](C)C(=O)N1CCC(NC(=O)Nc2ccc(OC(F)(F)F)c(F)c2)CC1` [lot 1], the “water vapor adsorption at 60% RH” value [7] was 60% RH 1.25 wt %, the “water vapor adsorption at 90% RH” value [7] was 90% RH 2.49 wt % and the “Endotherm (likely dehydration of bound water)” value [8] was 63 °C. The “Exotherm (crystallization of Form B)” value [8] was 115 °C (crystallization of, the Size range [9] was “Size range; 5-80 μm;” and the birefringence [9] was “Birefringent”. The crystal shape [9] was “Irregular plate;”, the “wt change at 233° C.” value [10] was 99% wt change and the “wt change below 100° C.” value [10] was 0% wt change.
For `CC[C@H](C)C(=O)N1CCC(NC(=O)Nc2ccc(OC(F)(F)F)c(F)c2)CC1` [lot 2], the “water vapor adsorption at 60% RH” value [7] was 60% RH 3.99 wt %, the “water vapor adsorption at 90% RH” value [7] was 90% RH 4.12 wt % and the “Endotherm (likely dehydration of bound water)” value [8] was 79 °C (likely dehydration of. For the same molecule, the “Endotherm (melting of Form A)” value [8] was 111 °C (melting of Form A),, the “Exotherm (crystallization of Form B)” value [8] was 117 °C (crystallization of and the Size range [9] was “Size range; 5-200 μm;”. For the same molecule, the birefringence [9] was “Birefringent”, the crystal shape [9] was “Irregular plate;” and the “wt change at 233° C.” value [10] was 96% wt change. The “wt change below 100° C.” value [10] was 2.9% wt change.
For `CC[C@H](C)C(=O)N1CCC(NC(=O)Nc2ccc(OC(F)(F)F)c(F)c2)CC1` [micronized Form D, (S)-1-(3-fluoro-4-(trifluoromethoxy)phenyl)-3-(1-(2-methylbutanoyl)piperidin-4-yl)urea], the bulk density [11] was 0.20 g/mL, the tapped density [11] was 0.22 g/mL and the D90 particle size ([9]; higher energy venturi, 2.5, 3.0 and 3.5 bar) was “below 6 μm”.
